Where a SMILES comes first, the peptide text is derived from it. [ ]: non-standard residue; d: D form. Aib = CC(C)(N)C(=O)O
system: Mouse monocyte/macrophage cell line, RAW 264.7; experiment: Cholesterol efflux assay (3H-cholesterol, macrophage cell line); format: cell-based; settings: RAW 264.7, 4 hrs incubation, 0.1% human serum albumin, ABCA1-mediated efflux

Structure (SMILES)	4 h Cholesterol Efflux Emax
CC[C@H](C)[C@H](NC(=O)[C@H](Cc1ccccc1)NC(=O)[C@H](CCC(=O)O)NC(=O)[C@H](CCCNC(=N)N)NC(=O)[C@H](C)NC(=O)[C@H](CCCNC(=N)N)NC(=O)[C@H](CCCCN)NC(=O)CNC(=O)[C@H](CCC(=O)O)NC(=O)[C@H](CC(C)C)NC(=O)[C@H](Cc1ccc(O)cc1)NC(=O)[C@H](CO)NC(=O)[C@H](CO)NC(=O)[C@@H](NC(=O)[C@H](CC(=O)O)NC(=O)[C@H](CO)NC(=O)[C@@H](NC(=O)[C@H](Cc1ccccc1)NC(=O)[C@@H](NC(=O)CNC(=O)[C@H](CCC(=O)O)NC(=O)C(C)(C)NC(=O)[C@@H](N)Cc1c[nH]cn1)[C@@H](C)O)[C@@H](C)O)C(C)C)C(=O)N[C@@H](C)C(=O)N[C@@H](Cc1c[nH]c2ccccc12)C(=O)N[C@@H](CC(C)C)C(=O)N[C@H](C(=O)N[C@@H](CCC(=O)O)C(=O)N[C@@H](CCCCN)C(=O)NC(C)(C)C(=O)N[C@@H](CCCCN)C(=O)N[C@@H](CCC(=O)O)C(=O)N[C@@H](Cc1ccccc1)C(=O)N[C@@H](CC(C)C)C(N)=O)C(C)C [Compound 52, [Aib8,Lys23,Arq24,Arq26,Glu34,Lys35,Aib36,Lys37]-GLP-1-(7-37)-peptidyl-Glu-Phe-Leu amide] (H-H[Aib]EGTFTSDVSSYLEGKRAREFIAWLVEK[Aib]KEFL-NH2)	98%
CC[C@H](C)[C@H](NC(=O)[C@H](Cc1ccccc1)NC(=O)[C@H](CCC(=O)O)NC(=O)[C@H](CCCCN)NC(=O)[C@@H](NC(=O)[C@H](CCCCN)NC(=O)[C@H](CCC(=O)O)NC(=O)CNC(=O)[C@H](CCC(=O)O)NC(=O)[C@H](CC(C)C)NC(=O)[C@H](Cc1ccc(O)cc1)NC(=O)[C@H](CO)NC(=O)[C@H](CO)NC(=O)[C@@H](NC(=O)[C@H](CC(=O)O)NC(=O)[C@H](CO)NC(=O)[C@@H](NC(=O)[C@H](Cc1ccccc1)NC(=O)[C@@H](NC(=O)CNC(=O)[C@H](CCC(=O)O)NC(=O)C(C)(C)NC(=O)[C@@H](N)Cc1c[nH]cn1)[C@@H](C)O)[C@@H](C)O)C(C)C)C(C)C)C(=O)N[C@@H](C)C(=O)N[C@@H](Cc1c[nH]c2ccccc12)C(=O)N[C@@H](CC(C)C)C(=O)N[C@H](C(=O)N[C@@H](CCC(=O)O)C(=O)N[C@@H](CCCCN)C(=O)NC(C)(C)C(=O)N[C@@H](CCCCN)C(=O)N[C@@H](CCC(=O)O)C(=O)N[C@@H](Cc1ccccc1)C(=O)N[C@@H](CC(C)C)C(N)=O)C(C)C [Compound 60, [Aib8,Glu23,Lys24,Val25,Glu34,Lys35,Aib36,Lys37]-GLP-1-(7-37)-peptidyl-Glu-Phe-Leu amide] (H-H[Aib]EGTFTSDVSSYLEGEKVKEFIAWLVEK[Aib]KEFL-NH2)	111%
CC[C@H](C)[C@H](NC(=O)[C@H](Cc1ccccc1)NC(=O)[C@H](CCC(=O)O)NC(=O)[C@H](CCCCN)NC(=O)[C@@H](NC(=O)[C@H](CCCCN)NC(=O)[C@H](CCC(=O)O)NC(=O)CNC(=O)[C@H](CCC(=O)O)NC(=O)[C@H](CC(C)C)NC(=O)[C@H](Cc1ccc(O)cc1)NC(=O)[C@H](CO)NC(=O)[C@H](CO)NC(=O)[C@@H](NC(=O)[C@H](CC(=O)O)NC(=O)[C@H](CO)NC(=O)[C@@H](NC(=O)[C@H](Cc1ccccc1)NC(=O)[C@@H](NC(=O)CNC(=O)[C@H](CCC(=O)O)NC(=O)C(C)(C)NC(=O)[C@@H](N)Cc1c[nH]cn1)[C@@H](C)O)[C@@H](C)O)C(C)C)C(C)C)C(=O)N[C@@H](CCC(=O)O)C(=O)N[C@@H](Cc1c[nH]cn1)C(=O)N[C@@H](CC(C)C)C(=O)N[C@H](C(=O)N[C@@H](CCC(=O)O)C(=O)N[C@@H](CCCCN)C(=O)NC(C)(C)C(=O)N[C@@H](CCCCN)C(=O)N[C@@H](CCC(=O)O)C(=O)N[C@@H](Cc1ccccc1)C(=O)N[C@@H](CC(C)C)C(N)=O)C(C)C [Compound 71, [Aib8,Glu23,Lys24,Val25,Glu30,His31,Glu34,Lys35,Aib36,Lys37]-GLP-1-(7-37)-peptidyl-Glu-Phe-Leu amide] (H-H[Aib]EGTFTSDVSSYLEGEKVKEFIEHLVEK[Aib]KEFL-NH2)	130%
CC[C@H](C)[C@H](NC(=O)[C@H](Cc1ccccc1)NC(=O)[C@H](CCC(N)=O)NC(=O)[C@H](CCCCN)NC(=O)[C@@H](NC(=O)[C@H](C)NC(=O)[C@H](CCC(N)=O)NC(=O)CNC(=O)[C@H](CCC(=O)O)NC(=O)[C@H](CC(C)C)NC(=O)[C@H](Cc1ccc(O)cc1)NC(=O)[C@H](CO)NC(=O)[C@H](CO)NC(=O)[C@@H](NC(=O)[C@H](CC(=O)O)NC(=O)[C@H](CO)NC(=O)[C@@H](NC(=O)[C@H](Cc1ccccc1)NC(=O)[C@@H](NC(=O)CNC(=O)[C@H](CCC(=O)O)NC(=O)C(C)(C)NC(=O)[C@@H](N)Cc1c[nH]cn1)[C@@H](C)O)[C@@H](C)O)C(C)C)C(C)C)C(=O)N[C@@H](C)C(=O)N[C@@H](Cc1c[nH]c2ccccc12)C(=O)N[C@@H](CC(C)C)C(=O)N[C@H](C(=O)N[C@@H](CCC(=O)O)C(=O)N[C@@H](CCCCN)C(=O)NC(C)(C)C(=O)N[C@@H](C)C(=O)N[C@@H](CCC(=O)O)C(=O)N[C@@H](Cc1ccccc1)C(=O)N[C@@H](CC(C)C)C(N)=O)C(C)C [Compound 72] (H-H[Aib]EGTFTSDVSSYLEGQAVKQFIAWLVEK[Aib]AEFL-NH2)	78%
CC[C@H](C)[C@H](NC(=O)[C@H](Cc1ccccc1)NC(=O)[C@H](CCC(N)=O)NC(=O)[C@H](CCCCN)NC(=O)[C@@H](NC(=O)[C@H](C)NC(=O)[C@H](CCC(N)=O)NC(=O)CNC(=O)[C@H](CCC(=O)O)NC(=O)[C@H](CC(C)C)NC(=O)[C@H](Cc1ccc(O)cc1)NC(=O)[C@H](CO)NC(=O)[C@H](CO)NC(=O)[C@@H](NC(=O)[C@H](CC(=O)O)NC(=O)[C@H](CO)NC(=O)[C@@H](NC(=O)[C@H](Cc1ccccc1)NC(=O)[C@@H](NC(=O)CNC(=O)[C@H](CCC(=O)O)NC(=O)C(C)(C)NC(=O)[C@@H](N)Cc1c[nH]cn1)[C@@H](C)O)[C@@H](C)O)C(C)C)C(C)C)C(=O)N[C@@H](C)C(=O)N[C@@H](Cc1c[nH]c2ccccc12)C(=O)N[C@@H](CC(C)C)C(=O)N[C@H](C(=O)N[C@@H](CC(N)=O)C(=O)N[C@@H](CCCCN)C(=O)NC(C)(C)C(=O)N[C@@H](C)C(=O)N[C@@H](CCC(=O)O)C(=O)N[C@@H](Cc1ccccc1)C(=O)N[C@@H](CC(C)C)C(N)=O)C(C)C [Compound 74] (H-H[Aib]EGTFTSDVSSYLEGQAVKQFIAWLVNK[Aib]AEFL-NH2)	91%
CC[C@H](C)[C@H](NC(=O)[C@H](Cc1ccccc1)NC(=O)[C@H](CCC(=O)O)NC(=O)[C@H](CCCCN)NC(=O)[C@H](C)NC(=O)[C@H](C)NC(=O)[C@H](CCC(N)=O)NC(=O)CNC(=O)[C@H](CCC(=O)O)NC(=O)[C@H](CC(C)C)NC(=O)[C@H](Cc1ccc(O)cc1)NC(=O)[C@H](CO)NC(=O)[C@H](CO)NC(=O)[C@@H](NC(=O)[C@H](CC(=O)O)NC(=O)[C@H](CO)NC(=O)[C@@H](NC(=O)[C@H](Cc1ccccc1)NC(=O)[C@@H](NC(=O)CNC(=O)[C@H](CCC(=O)O)NC(=O)C(C)(C)NC(=O)[C@@H](N)Cc1c[nH]cn1)[C@@H](C)O)[C@@H](C)O)C(C)C)C(=O)N[C@@H](C)C(=O)N[C@@H](Cc1c[nH]c2ccccc12)C(=O)N[C@@H](CC(C)C)C(=O)N[C@H](C(=O)N[C@@H](CCCCN)C(=O)NCC(=O)N[C@H](C(=O)NCC(=O)N[C@@H](CCC(=O)O)C(=O)N[C@@H](Cc1ccccc1)C(=O)N[C@@H](CC(C)C)C(N)=O)C(C)C)C(C)C [Compound 75]	68%
CC[C@H](C)[C@H](NC(=O)[C@H](Cc1ccccc1)NC(=O)[C@H](CCC(=O)O)NC(=O)[C@H](CCCCN)NC(=O)[C@@H](NC(=O)[C@H](C)NC(=O)[C@H](CCC(=O)O)NC(=O)CNC(=O)[C@H](CCC(=O)O)NC(=O)[C@H](CC(C)C)NC(=O)[C@H](Cc1ccc(O)cc1)NC(=O)[C@H](CO)NC(=O)[C@H](CO)NC(=O)[C@@H](NC(=O)[C@H](CC(=O)O)NC(=O)[C@H](CO)NC(=O)[C@@H](NC(=O)[C@H](Cc1ccccc1)NC(=O)[C@@H](NC(=O)CNC(=O)[C@H](CCC(=O)O)NC(=O)C(C)(C)NC(=O)[C@@H](N)Cc1c[nH]cn1)[C@@H](C)O)[C@@H](C)O)C(C)C)C(C)C)C(=O)N[C@@H](CCCCN)C(=O)N[C@@H](Cc1c[nH]c2ccccc12)C(=O)N[C@@H](CC(C)C)C(=O)N[C@H](C(=O)N[C@@H](CCC(=O)O)C(=O)N[C@@H](CCCCN)C(=O)N[C@@H](CC(C)C)C(=O)N[C@@H](CCCCN)C(=O)N[C@@H](CCC(=O)O)C(=O)N[C@@H](Cc1ccccc1)C(=O)N[C@@H](CC(C)C)C(N)=O)C(C)C [Compound 85, [Aib8,Glu23,Val25,Lys30,Glu34,Lys35,Leu36,Lys37]-GLP-1-(7-37)-peptidyl-Glu-Phe-Leu amide] (H-H[Aib]EGTFTSDVSSYLEGEAVKEFIKWLVEKLKEFL-NH2)	93%
CC[C@H](C)[C@H](NC(=O)[C@H](Cc1ccccc1)NC(=O)[C@H](CCC(=O)O)NC(=O)[C@H](CCCCN)NC(=O)[C@@H](NC(=O)[C@H](C)NC(=O)[C@H](CCC(=O)O)NC(=O)CNC(=O)[C@H](CCC(=O)O)NC(=O)[C@H](CC(C)C)NC(=O)[C@H](Cc1ccc(O)cc1)NC(=O)[C@H](CO)NC(=O)[C@H](CO)NC(=O)[C@@H](NC(=O)[C@H](CC(=O)O)NC(=O)[C@H](CO)NC(=O)[C@@H](NC(=O)[C@H](Cc1ccccc1)NC(=O)[C@@H](NC(=O)CNC(=O)[C@H](CCC(=O)O)NC(=O)C(C)(C)NC(=O)[C@@H](N)Cc1c[nH]cn1)[C@@H](C)O)[C@@H](C)O)C(C)C)C(C)C)C(=O)N[C@@H](C)C(=O)N[C@@H](Cc1c[nH]c2ccccc12)C(=O)N[C@@H](CC(C)C)C(=O)N[C@H](C(=O)N[C@@H](CCC(=O)O)C(=O)N[C@@H](CCCCN)C(=O)NC(C)(C)C(=O)N[C@@H](CC(C)C)C(=O)N[C@@H](CO)C(=O)N[C@@H](Cc1ccccc1)C(=O)N[C@@H](CC(C)C)C(N)=O)C(C)C [Compound 88] (H-H[Aib]EGTFTSDVSSYLEGEAVKEFIAWLVEK[Aib]LSFL-NH2)	69%
